Target: human TrkA receptor (Homo sapiens (Human), UniProt P04629)
Experiment: DiscoverX PathHunter TrkA functional assay (NGF-stimulated U2OS cells)
Assay type: cell-based
Conditions: U2OS cells expressing human TrkA-PK, Shc1-EA and p75NTR; compound 1 h, then NGF at ~80% of maximal response for 3 h; luminescence

Sequence of human TrkA receptor (P04629 33-796): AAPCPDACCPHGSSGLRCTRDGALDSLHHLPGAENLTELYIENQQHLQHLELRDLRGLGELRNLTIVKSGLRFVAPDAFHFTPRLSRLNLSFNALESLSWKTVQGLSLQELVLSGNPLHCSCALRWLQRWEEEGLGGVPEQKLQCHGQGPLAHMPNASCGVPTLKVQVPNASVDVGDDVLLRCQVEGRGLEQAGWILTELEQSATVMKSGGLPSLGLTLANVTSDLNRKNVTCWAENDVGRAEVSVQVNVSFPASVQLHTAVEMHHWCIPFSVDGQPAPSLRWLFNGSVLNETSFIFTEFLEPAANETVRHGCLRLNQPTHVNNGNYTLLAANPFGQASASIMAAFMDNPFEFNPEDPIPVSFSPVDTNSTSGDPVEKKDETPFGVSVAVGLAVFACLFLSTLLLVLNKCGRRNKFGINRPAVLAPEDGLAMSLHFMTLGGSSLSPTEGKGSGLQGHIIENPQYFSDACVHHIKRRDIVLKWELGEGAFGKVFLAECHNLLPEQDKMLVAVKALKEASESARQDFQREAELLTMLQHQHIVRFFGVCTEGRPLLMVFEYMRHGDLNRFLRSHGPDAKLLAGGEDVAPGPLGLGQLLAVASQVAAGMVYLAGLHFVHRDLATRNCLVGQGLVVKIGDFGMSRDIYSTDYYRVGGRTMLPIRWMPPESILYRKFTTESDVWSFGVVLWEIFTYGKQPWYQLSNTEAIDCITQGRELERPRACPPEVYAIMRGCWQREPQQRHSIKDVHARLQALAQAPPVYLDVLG

| Compound | IC50 [nM] |
| --- | --- |
| Cn1ccc(-c2cc(C(=O)Nc3ccc(CNC(=O)C(O)CO)nc3-c3ccccc3)c(F)cc2C(F)(F)F)n1 (single isomer, unassigned) [Example 61, (S or R)-N-(6-((2,3-dihydroxypropanamido)methyl)-2-phenylpyridin-3-yl)-2-fluoro-5-(1-methyl-1H-pyrazol-3-yl)-4-(trifluoromethyl)benzamide] | 0.64 |
| CN1CCOC(C(=O)NCc2ccc(NC(=O)c3cc(-c4ccn(C)n4)c(C(F)(F)F)cc3F)c(-c3ccccc3)n2)C1 (single isomer, unassigned) [Example 63, (S or R)-N-((5-(2-fluoro-5-(1-methyl-1H-pyrazol-3-yl)-4-(trifluoromethyl)benzamido)-6-phenylpyridin-2-yl)methyl)-4-methylmorpholine-2-carboxamide] | 1.8 |
| Cn1ccc(-c2cc(C(=O)Nc3cc(C4CCC(=O)N4)cnc3-c3ccccc3)c(F)cc2C(F)(F)F)n1 (single isomer, unassigned) [Example 181, (R or S)-2-Fluoro-5-(1-methyl-1H-pyrazol-3-yl)-N-(5-(5-oxopyrrolidin-2-yl)-2-phenylpyridin-3-yl)-4-(trifluoromethyl)benzamide] | 3.5 |
| Cn1ccc(-c2cc(C(=O)Nc3cnc(CC4NC(=O)NC4=O)nc3-c3ccccc3)ccc2C(F)(F)F)n1 (single isomer, unassigned) [Example 190, (R or S)—N-(2-(2,5-Dioxoimidazolidin-4-yl)methyl)-4-phenylpyrimidin-5-yl)-3-(1-methyl-1H-pyrazol-3-yl)-4-(trifluoromethyl)benzamide] | 1.8 |
| Cn1ccc(-c2cc(C(=O)Nc3ccc(C(O)CO)nc3-c3ccccc3)c(F)cc2C(F)(F)F)n1 (single isomer, unassigned) [Example 192, (R or S)—N-(6-(1,2-Dihydroxyethyl)-2-phenylpyridin-3-yl)-2-fluoro-5-(1-methyl-1H-pyrazol-3-yl)-4-(trifluoromethyl)benzamide] | 2.3 |
| Cn1ccc(-c2cc(C(=O)Nc3ccc(C4COC(=O)N4)nc3-c3ccccc3)c(F)cc2C(F)(F)F)n1 (single isomer, unassigned) [Example 196, (R or S)-2-Fluoro-5-(1-methyl-1H-pyrazol-3-yl)-N-(6-(2-oxooxazolidin-4-yl)-2-phenylpyridin-3-yl)-4-(trifluoromethyl)benzamide] | 0.19 |
| Cn1ccc(-c2cc(C(=O)Nc3cnc(CN4CCOC4=O)nc3-c3ccccc3)c(F)cc2C(F)(F)F)n1 (single isomer, unassigned) [Example 218] | 0.14 |
| Cc1ncc(NC(=O)c2cc(-c3ncccn3)c(Cl)cc2F)c(-c2ccccc2)n1 [Example 2, 4-Chloro-2-fluoro-N-(2-methyl-4-phenylpyrimidin-5-yl)-5-(pyrimidin-2-yl)benzamide] | 100 |
| Cc1cc(-c2ccccc2)c(NC(=O)c2ccc(OC(F)(F)F)c(-c3ccn(C)n3)c2)cn1 [Example 3, 3-(1-Methyl-1H-pyrazol-3-yl)-N-(6-methyl-4-phenylpyridin-3-yl)-4-(trifluoromethoxy)benzamide] | 54 |
| Cc1nc(Cl)c(NC(=O)c2ccc(C(F)(F)F)c(-c3ccn(C)n3)c2)c(-c2ccccc2)n1 [Example 4, N-(4-Chloro-2-methyl-6-phenylpyrimidin-5-yl)-3-(1-methyl-1H-pyrazol-3-yl)-4-(trifluoromethyl)benzamide] | 160 |
| O=C(Nc1ccccc1-c1ccc(F)cc1)c1ccc(C(F)(F)F)cc1F [Example 6, 2-fluoro-N-(4′-fluorobiphenyl-2-yl)-4-(trifluoromethyl)benzamide] | 4900 |
| Cc1cc(-c2ccccc2NC(=O)c2cccc(-c3nccs3)c2)n[nH]1 [Example 7, N-[2-(5-methyl-1H-pyrazol-3-yl)phenyl]-3-(1,3-thiazol-2-yl)benzamide] | 4000 |
| Cc1cc(C)n(-c2ccc(Cl)c(C(=O)Nc3cnc(C)nc3-c3ccccc3)c2)n1 [Example 9, 2-chloro-5-(3,5-dimethyl-1H-pyrazol-1-yl)-N-(2-methyl-4-phenylpyrimidin-5-yl)benzamide] | 140 |
| O=C(Nc1cc(-c2cccnc2)cnc1-c1ccccc1)c1ccc(C(F)(F)F)cc1 [Example 10, N-(6-phenyl-3,3′-bipyridin-5-yl)-4-(trifluoromethyl)benzamide] | 1600 |
| Cc1ncc(NC(=O)c2ccc(C(F)(F)F)c(-c3cscn3)c2)c(-c2ccccc2)n1 [Example 12, N-(2-methyl-4-phenylpyrimidin-5-yl)-3-(1,3-thiazol-4-yl)-4-(trifluoromethyl)benzamide] | 36 |
| Cc1cc(C)n(-c2cc(C(=O)Nc3cnc(C)nc3-c3ccccc3)ccc2F)n1 [Example 13, 3-(3,5-dimethyl-1H-pyrazol-1-yl)-4-fluoro-N-(2-methyl-4-phenylpyrimidin-5-yl)benzamide] | 910 |
| Cc1ncc(NC(=O)c2cccc(-n3nccc3C(F)(F)F)c2)c(-c2ccccc2)n1 [Example 14, N-(2-methyl-4-phenylpyrimidin-5-yl)-3-[5-(trifluoromethyl)-1H-pyrazol-1-yl]benzamide] | 590 |
| Cc1ncc(NC(=O)c2ccc(C(F)(F)F)c(-n3nccn3)c2)c(-c2ccccc2)n1 [Example 16, N-(2-methyl-4-phenylpyrimidin-5-yl)-3-(2H-1,2,3-triazol-2-yl)-4-(trifluoromethyl)benzamide] | 66 |
| Cc1ccn(-c2cc(C(=O)Nc3cnc(C)nc3-c3ccccc3)ccc2C(F)(F)F)n1 [Example 17, N-(2-methyl-4-phenylpyrimidin-5-yl)-3-(3-methyl-1H-pyrazol-1-yl)-4-(trifluoromethyl)benzamide] | 15 |
| Cc1cc(-c2nc(C)ncc2NC(=O)c2ccc(C(F)(F)F)c(-c3nc(C)cs3)c2)[nH]n1 [Example 18, N-[2-methyl-4-(3-methyl-1H-pyrazol-5-yl)pyrimidin-5-yl]-3-(4-methyl-1,3-thiazol-2-yl)-4-(trifluoromethyl)benzamide] | 330 |
| Cc1cnn(-c2ccncc2NC(=O)c2ccc(C(F)(F)F)c(-c3ccn(C)n3)c2)c1 [Example 19, 3-(1-methyl-1H-pyrazol-3-yl)-N-[4-(4-methyl-1H-pyrazol-1-yl)pyridin-3-yl]-4-(trifluoromethyl)benzamide] | 25 |

More lines, in order of falling IC50, values ahead:

| IC50 [nM] | Compound |
| --- | --- |
| 7500 | Cc1cc(-c2ccccc2NC(=O)c2cc(-n3nc(C)cc3C)ccc2Cl)on1 [Example 11, 2-chloro-5-(3,5-dimethyl-1H-pyrazol-1-yl)-N-[2-(3-methylisoxazol-5-yl)phenyl]benzamide] |
| 4300 | Cc1ncc(NC(=O)c2ccc(C)c(F)c2F)c(-c2ccccc2)n1 [Example 8, 2,3-difluoro-4-methyl-N-(2-methyl-4-phenylpyrimidin-5-yl)benzamide] |
| 480 | O=C(Nc1cc(N2CCOCC2)cnc1-c1ccccc1)c1ccc(C(F)(F)F)cc1Cl [Example 1, 2-Chloro-N-(5-morpholino-2-phenylpyridin-3-yl)-4-(trifluoromethyl)benzamide] |
| 14 | Cc1cc(-c2ccccc2)c(NC(=O)c2ccc(C(F)(F)F)c(-c3cc[nH]n3)c2)cn1 [Example 5, N-(6-Methyl-4-phenylpyridin-3-yl)-3-(1H-pyrazol-5-yl)-4-(trifluoromethyl)benzamide] |
| 5 | Cn1ccc(-c2cc(C(=O)Nc3ccc(C4CCNC4=O)nc3-c3ccccc3)ccc2C(F)(F)F)n1 (single isomer, unassigned) [Example 186, (R or S)-3-(1-Methyl-1H-pyrazol-3-yl)-N-(6-(2-oxopyrrolidin-3-yl)-2-phenylpyridin-3-yl)-4-(trifluoromethyl)benzamide] |
| 4.5 | Cn1ccc(-c2cc(C(=O)Nc3cnc(CC4CCNC4=O)nc3-c3ccccc3)c(F)cc2C(F)(F)F)n1 (single isomer, unassigned) [Example 191, (R or S)-2-Fluoro-5-(1-methyl-1H-pyrazol-3-yl)-N-(2-(2-oxopyrrolidin-3-yl)methyl)-4-phenylpyrimidin-5-yl)-4-(trifluoromethyl)benzamide] |
| 3.7 | Cn1ccc(-c2cc(C(=O)Nc3cnc(C4CCNC4=O)nc3-c3ccccc3)c(F)cc2C(F)(F)F)n1 (single isomer, unassigned) [Example 197, (R or S)-2-Fluoro-5-(1-methyl-1H-pyrazol-3-yl)-N-(2-(2-oxopyrrolidin-3-yl)-4-phenylpyrimidin-5-yl)-4-(trifluoromethyl)benzamide] |
| 3 | Cc1ncc(NC(=O)c2ccc(C(F)(F)F)c(-c3ccn(C)n3)c2)c(-c2ccccc2)n1 [Example 15, N-(2-methyl-4-phenylpyrimidin-5-yl)-3-(1-methyl-1H-pyrazol-3-yl)-4-(trifluoromethyl)benzamide] |
| 1.2 | Cn1ccc(-c2cc(C(=O)Nc3cnc(CNC(=O)C(C)(N)CO)nc3-c3ccccc3)c(F)cc2C(F)(F)F)n1 (single isomer, unassigned) [Example 66, (S or R)-N-(2-((2-amino-3-hydroxy-2-methylpropanamido)methyl)-4-phenylpyrimidin-5-yl)-2-fluoro-5-(1-methyl-1H-pyrazol-3-yl)-4-(trifluoromethyl)benzamide] |
| 0.79 | Cn1ccc(-c2cc(C(=O)Nc3ccc(CNC(=O)C(O)CO)nc3-c3ccccc3)c(F)cc2C(F)(F)F)n1 (single isomer, unassigned) [Example 62, (S or R)-N-(6-((2,3-dihydroxypropanamido)methyl)-2-phenylpyridin-3-yl)-2-fluoro-5-(1-methyl-1H-pyrazol-3-yl)-4-(trifluoromethyl)benzamide] |
| 0.66 | Cn1ccc(-c2cc(C(=O)Nc3cnc(CN4CC(CO)OC4=O)nc3-c3ccccc3)c(F)cc2C(F)(F)F)n1 (single isomer, unassigned) [Example 228, (R or S)-2-fluoro-N-(2-((5-(hydroxymethyl)-2-oxooxazolidin-3-yl)methyl)-4-phenylpyrimidin-5-yl)-5-(1-methyl-1H-pyrazol-3-yl)-4-(trifluoromethyl)benzamide] |
| 0.57 | Cn1ccc(-c2cc(C(=O)Nc3ccc(C4CNC(=O)C4)nc3-c3ccccc3)c(F)cc2C(F)(F)F)n1 (single isomer, unassigned) [Example 198, (R or S)-2-Fluoro-5-(1-methyl-1H-pyrazol-3-yl)-N-(6-(5-oxopyrrolidin-3-yl)-2-phenylpyridin-3-yl)-4-(trifluoromethyl)benzamide] |
